{
  "source": "patent US20100168105A1",
  "about": "“Spirocyclopropyl Piperidine Derivatives” (priority 2007, published 2010)",
  "data": [
    {"biological_target": "T1, human Histamine H3 receptor (hH3R) (Homo sapiens, UniProt Q9Y5N1)", "T1 construct": "expressed in transfected cells; host or cells: CHO cells (membranes)", "T1 sequence (Q9Y5N1 whole entry)": "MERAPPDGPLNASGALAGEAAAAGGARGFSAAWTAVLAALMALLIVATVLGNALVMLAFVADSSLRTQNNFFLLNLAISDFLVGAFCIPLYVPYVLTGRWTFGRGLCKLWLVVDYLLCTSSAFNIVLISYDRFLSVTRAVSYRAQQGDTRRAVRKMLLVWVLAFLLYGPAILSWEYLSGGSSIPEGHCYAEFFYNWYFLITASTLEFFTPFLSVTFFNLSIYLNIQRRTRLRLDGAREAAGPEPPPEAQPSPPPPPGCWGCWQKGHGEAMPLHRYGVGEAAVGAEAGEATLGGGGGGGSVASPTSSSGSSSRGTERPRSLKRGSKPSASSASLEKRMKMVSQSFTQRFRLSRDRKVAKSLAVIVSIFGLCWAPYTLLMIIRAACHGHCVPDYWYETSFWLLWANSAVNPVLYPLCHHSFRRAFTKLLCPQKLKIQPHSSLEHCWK", "assay": "Guanosine 5'-O-(3-[35S]thio)triphosphate [GTPγS] Binding Assay", "format": "biochemical", "settings": "antagonist activity; membranes from CHO cells expressing hH3R, (R)-α-methyl histamine 30 nM, [35S]GTPγS 0.2 nM, 90 minutes", "protocol": "Guanosine 5′-O-(3-[^35]thio)triphosphate [GTPγS] Binding Assay\nThe GTPγS binding assay can be used to investigate antagonist properties of compounds in CHO cells (Chinese Hamster Ovary) transfected with human Histamine H3 receptor (hH3R). […] To determine antagonist activity, (R)-α-methyl histamine (30 nM) is added in 96 well SPA plate with [^35S]GTPγS (0.2 nM) and various concentration of H3R antagonists. The GTPγS binding assay is started with addition of the mixture membrane/saponine/GDP and incubated for 90 minutes at room temperature. The amount of bound [^35S]GTPγS is determined by using the MicroBeta Trilux counter (PerkinElmer). The percentage of [^35S]GTPγS bound in each sample is calculated as a percentage of that bound control sample incubated in absence of H3 antagonist. Duplicate determinations are obtained for each concentration, and the data are analyzed using ExcelFit4 to obtain the IC50.", "units": {"IC50": "nM"}, "values": [
      {"smiles": "O=C(C1CC12CCN(CCc1ccccc1)CC2)N1CCN(C2CCCCC2)CC1", "note": "(single isomer, unassigned) [Example 17, (4-Cyclohexyl-piperazin-1-yl)-(6-phenethyl-6-aza-spiro[2.5]oct-1-yl)-methanone]", "IC50": 16.4},
      {"smiles": "O=C(C1CC12CCN(CCc1ccccc1)CC2)N1CCN(C2CCCCC2)CC1", "note": "(single isomer, unassigned) [Example 18, (4-Cyclohexyl-piperazin-1-yl)-(6-phenethyl-6-aza-spiro[2.5]oct-1-yl)-methanone]", "IC50": 125},
      {"smiles": "O=C(C1CC12CCN(C1CCCCC1)CC2)N1CCN(C2CCC2)CC1", "note": "(single isomer, unassigned) [Example 26, (4-Cyclobutyl-piperazin-1-yl)-(6-cyclohexyl-6-aza-spiro[2.5]oct-1-yl)-methanone]", "IC50": 6.55},
      {"smiles": "O=C(C1CC12CCN(C1CCOCC1)CC2)N1CCN(c2cccnc2)CC1", "note": "(stereo not shown) [Example 48, (4-(pyridin-3-yl)piperazin-1-yl)(6-(tetrahydro-2H-pyran-4-yl)-6-azaspiro[2.5]octan-1-yl)methanone]", "IC50": 308},
      {"smiles": "Cc1cc(N2CCN(C(=O)C3CC34CCN(C3CCOCC3)CC4)CC2)ccn1", "note": "(stereo not shown) [Example 49, (4-(2-methylpyridin-4-yl)piperazin-1-yl)(6-(tetrahydro-2H-pyran-4-yl)-6-azaspiro[2.5]octan-1-yl)methanone]", "IC50": 249},
      {"smiles": "Cc1cnccc1N1CCN(C(=O)C2CC23CCN(C2CCOCC2)CC3)CC1", "note": "(stereo not shown) [Example 50, (4-(3-methylpyridin-4-yl)piperazin-1-yl)(6-(tetrahydro-2H-pyran-4-yl)-6-azaspiro[2.5]octan-1-yl)methanone]", "IC50": 115}
    ]},
    {"biological_target": "human histamine H3 receptors (full-length H3, isoform 445) (Homo sapiens, UniProt Q9Y5N1)", "sequence (Q9Y5N1 whole entry, canonical isoform)": "as the sequence (Q9Y5N1 whole entry) above", "assay": "not given", "settings": "hH3 binding IC50 (nM), inhibition of 1.4 nM [3H]-N-α-methylhistamine binding to CHO-K1 membranes expressing human H3, SPA, 1.5 hr", "units": {"IC50": "nM"}, "values": [
      {"smiles": "O=C(C1CC12CCN(CCc1ccccc1)CC2)N1CCN(C2CCCCC2)CC1", "note": "(single isomer, unassigned) [Example 17, (4-Cyclohexyl-piperazin-1-yl)-(6-phenethyl-6-aza-spiro[2.5]oct-1-yl)-methanone]", "IC50": 27.4},
      {"smiles": "O=C(C1CC12CCN(CCc1ccccc1)CC2)N1CCN(C2CCCCC2)CC1", "note": "(single isomer, unassigned) [Example 18, (4-Cyclohexyl-piperazin-1-yl)-(6-phenethyl-6-aza-spiro[2.5]oct-1-yl)-methanone]", "IC50": 407},
      {"smiles": "O=C(C1CC12CCN(C1CCCCC1)CC2)N1CCN(C2CCC2)CC1", "note": "(single isomer, unassigned) [Example 26, (4-Cyclobutyl-piperazin-1-yl)-(6-cyclohexyl-6-aza-spiro[2.5]oct-1-yl)-methanone]", "IC50": 1.35},
      {"smiles": "O=C(C1CC12CCN(C1CCOCC1)CC2)N1CCN(CC2CCCCC2)CC1", "note": "(stereo not shown) [Example 2, (4-Cyclohexylmethyl-piperazin-1-yl)-[6-(tetrahydro-pyran-4-yl)-6-aza-spiro[2.5]oct-1-yl]-methanone]", "IC50": 390},
      {"smiles": "CCC(CC)CN1CCC2(CC1)CC2C(=O)N1CCN(C)CC1", "note": "(stereo not shown) [Example 3, [6-(2-Ethyl-butyl)-6-aza-spiro[2.5]oct-1-yl]-(4-methyl-piperazin-1-yl)-methanone]", "IC50": 1000},
      {"smiles": "CN1CCN(C(=O)C2CC23CCN(C/C=C/c2ccccc2)CC3)CC1", "note": "(stereo not shown) [Example 4, (4-Methyl-piperazin-1-yl)-[6-((E)-3-phenyl-allyl)-6-aza-spiro[2.5]oct-1-yl]-methanone]", "IC50": 800},
      {"smiles": "CN1CCN(C(=O)C2CC23CCN(CCc2ccccc2)CC3)CC1", "note": "(stereo not shown) [Example 5, (4-Methyl-piperazin-1-yl)-(6-phenethyl-6-aza-spiro[2.5]oct-1-yl)-methanone]", "IC50": 640},
      {"smiles": "CN1CCC(N2CCC3(CC2)CC3C(=O)N2CCN(C)CC2)CC1", "note": "(stereo not shown) [Example 6, (4-Methyl-piperazin-1-yl)-[6-(1-methyl-piperidin-4-yl)-6-aza-spiro[2.5]oct-1-yl]-methanone]", "IC50": 1300},
      {"smiles": "O=C(C1CC12CCN(C1CCOCC1)CC2)N1CCN(c2ccccn2)CC1", "note": "(stereo not shown) [Example 13, (4-Pyridin-2-yl-piperazin-1-yl)-[6-(tetrahydro-pyran-4-yl)-6-aza-spiro[2.5]oct-1-yl]-methanone]", "IC50": 573},
      {"smiles": "COc1ccc(N2CCN(C(=O)C3CC34CCN(C3CCOCC3)CC4)CC2)cc1", "note": "(stereo not shown) [Example 15, [4-(4-Methoxy-phenyl)-piperazin-1-yl]-[6-(tetrahydro-pyran-4-yl)-6-aza-spiro[2.5]oct-1-yl]-methanone]", "IC50": 322},
      {"smiles": "O=C(C1CC12CCN(Cc1ccccc1)CC2)N1CCN(C2CCCCC2)CC1", "note": "(stereo not shown) [Example 23, (6-Benzyl-6-aza-spiro[2.5]oct-1-yl)-(4-cyclohexyl-piperazin-1-yl)-methanone]", "IC50": 306},
      {"smiles": "O=C(C1CC12CCN(C1CCOCC1)CC2)N1CCN(C2CCOCC2)CC1", "note": "(stereo not shown) [Example 24, [6-(Tetrahydro-pyran-4-yl)-6-aza-spiro[2.5]oct-1-yl]-[4-(tetrahydro-pyran-4-yl)-piperazin-1-yl]-methanone]", "IC50": 336},
      {"smiles": "O=C(C1CC12CCN(CCOCc1ccccc1)CC2)N1CCN(C2CCCCC2)CC1", "note": "(stereo not shown) [Example 25, [6-(2-Benzyloxy-ethyl)-6-aza-spiro[2.5]oct-1-yl]-(4-cyclohexyl-piperazin-1-yl)-methanone]", "IC50": 419},
      {"smiles": "CC(C)(C)OC(=O)CN1CCC2(CC1)CC2C(=O)N1CCN(C2CCC2)CC1", "note": "(stereo not shown) [Example 36, [1-(4-Cyclobutyl-piperazine-1-carbonyl)-6-aza-spiro[2.5]oct-6-yl]-acetic acid tert-butyl ester]", "IC50": 182},
      {"smiles": "CNC(=O)CN1CCC2(CC1)CC2C(=O)N1CCN(C2CCC2)CC1", "note": "(stereo not shown) [Example 37, 2-[1-(4-Cyclobutyl-piperazine-1-carbonyl)-6-aza-spiro[2.5]oct-6-yl]-N-methyl-acetamide]", "IC50": 207},
      {"smiles": "CS(=O)(=O)c1ccc(N2CCC3(CC2)CC3C(=O)N2CCN(C3CCC3)CC2)cc1", "note": "(stereo not shown) [Example 38, (4-Cyclobutyl-piperazin-1-yl)-[6-(4-methanesulfonyl-phenyl)-6-aza-spiro[2.5]oct-1-yl]-methanone]", "IC50": 336},
      {"smiles": "COc1ccc(N2CCC3(CC2)CC3C(=O)N2CCN(C3CCC3)CC2)cc1", "note": "(stereo not shown) [Example 39, (4-Cyclobutyl-piperazin-1-yl)-[6-(4-methoxy-phenyl)-6-aza-spiro[2.5]oct-1-yl]-methanone]", "IC50": 361},
      {"smiles": "COC(=O)c1ccc(N2CCC3(CC2)CC3C(=O)N2CCN(C3CCC3)CC2)cc1", "note": "(stereo not shown) [Example 40, 4-[1-(4-Cyclobutyl-piperazine-1-carbonyl)-6-aza-spiro[2.5]oct-6-yl]-benzoic acid methyl ester]", "IC50": 470},
      {"smiles": "COc1cccc(N2CCC3(CC2)CC3C(=O)N2CCN(C3CCC3)CC2)n1", "note": "(stereo not shown) [Example 41, (4-Cyclobutyl-piperazin-1-yl)-[6-(6-methoxy-pyridin-2-yl)-6-aza-spiro[2.5]oct-1-yl]-methanone]", "IC50": 542},
      {"smiles": "O=C(C1CC12CCN(c1cccc(Cl)n1)CC2)N1CCN(C2CCC2)CC1", "note": "(stereo not shown) [Example 42, [6-(6-Chloro-pyridin-2-yl)-6-aza-spiro[2.5]oct-1-yl]-(4-cyclobutyl-piperazin-1-yl)-methanone]", "IC50": 594},
      {"smiles": "COCCN1CCC2(CC1)CC2C(=O)N1CCN(C2CCCCC2)CC1", "note": "(stereo not shown) [Example 43, (4-Cyclohexyl-piperazin-1-yl)-[6-(2-methoxy-ethyl)-6-aza-spiro[2.5]oct-1-yl]-methanone]", "IC50": 615},
      {"smiles": "O=C(C1CC12CCN(c1ccccn1)CC2)N1CCN(C2CCC2)CC1", "note": "(stereo not shown) [Example 44, (4-Cyclobutyl-piperazin-1-yl)-(6-pyridin-2-yl-6-aza-spiro[2.5]oct-1-yl)-methanone]", "IC50": 736},
      {"smiles": "Cc1ccc(N2CCC3(CC2)CC3C(=O)N2CCN(C3CCC3)CC2)cc1", "note": "(stereo not shown) [Example 45, (4-Cyclobutyl-piperazin-1-yl)-(6-p-tolyl-6-aza-spiro[2.5]oct-1-yl)-methanone]", "IC50": 791},
      {"smiles": "O=C(C1CC12CCN(c1ccc(C(F)(F)F)cn1)CC2)N1CCN(C2CCCCC2)CC1", "note": "(stereo not shown) [Example 46, (4-Cyclohexyl-piperazin-1-yl)-[6-(5-trifluoromethyl-pyridin-2-yl)-6-aza-spiro[2.5]oct-1-yl]-methanone]", "IC50": 10000},
      {"smiles": "O=C(C1CC12CCN(c1ccc3c(c1)OCO3)CC2)N1CCN(C2CCCCC2)CC1", "note": "(stereo not shown) [Example 47, (6-Benzo[1,3]dioxol-5-yl-6-aza-spiro[2.5]oct-1-yl)-(4-cyclohexyl-piperazin-1-yl)-methanone]", "IC50": 5170}
    ]}
  ]
}
